Experimental data published in patent publication US9725490B2, “ERAP1-derived peptide and use thereof” (TOKUSHIMA UNIVERSITY, priority 2011, dated 2017).

Tested on: Akt, MAPK and ERα phosphorylation
Experiment: Phosphorylation of Akt, MAPK and ERα in tamoxifen-resistant MCF-7 cells
Type: cell-based, human
Experimental: FIG. 14 is a diagram illustrating the suppression effect of the ERAP1-peptide on tamoxifen-resistant MCF-7 cells. […] The tamoxifen-resistant MCF-7 cells were treated with the ERAP1-peptide in each concentration (0, 5 and 10 μM). Then, immediately, the cells were stimulated with 10 nM E2 for 24 hours.
MCF-7 cells and tamoxifen-resistant MCF-7 cells were seeded in 1×10^5/well in DMEM/F12 culture medium containing phenol red on a 24-well plate and stood in a CO2 incubator for 24 hours. Then, the culture medium was exchanged with DMEM/F12 culture medium containing 10% FBS, 1% penicillin/streptomycin and 1 μM tamoxifen, and not containing phenol red, and the cells were further pre-cultured for 24 hours. The supernatant was removed, and then 180 μl of […] ERAP1-peptide was added (final concentration: 10 μM), and subsequently 20 μl of 100 nM E2 was added (final concentration: 10 nM), and the mixture was reacted for 24 hours. The reaction solution was removed, and then 100 μl of SDS-sample buffer was added and the cells were lysed. The cells were subjected to boiling treatment at 95° C. for 5 minutes, and subjected to polyacrylic amide electrophoresis. Phosphorylations of Akt and MAPK were detected with anti-phosphorylation Akt (Ser473) (587F11) and anti-phosphorylation p44/42 MAP Kinase (Thr202/Tyr204) antibodies, and phosphorylation of ERα was detected with anti-phosphorylation ERα (Ser104/106), anti-phosphorylation ERα (Ser118), anti-phosphorylation ERα (Ser167), anti-phosphorylation ERα (Ser305) and anti-phosphorylation ERα (Tyr537) antibodies.

CSCC[C@H](NC(=O)[C@H](CCC(N)=O)NC(=O)[C@H](CCCNC(=N)N)NC(=O)[C@H](CCCNC(=N)N)NC(=O)[C@H](CCCNC(=N)N)NC(=O)[C@H](CCCNC(=N)N)NC(=O)[C@H](CCCNC(=N)N)NC(=O)[C@H](CCCNC(=N)N)NC(=O)[C@H](CCCNC(=N)N)NC(=O)[C@H](CCCNC(=N)N)NC(=O)[C@H](CCCNC(=N)N)NC(=O)[C@H](CCCNC(=N)N)NC(=O)[C@@H](N)CCCNC(=N)N)C(=O)N[C@@H](CC(C)C)C(=O)N[C@@H](CO)C(=O)N[C@@H](CC(=O)O)C(=O)N[C@@H](CC(C)C)C(=O)N[C@H](C(=O)N[C@@H](CC(C)C)C(=O)N[C@@H](CCC(N)=O)C(=O)N[C@@H](CC(C)C)C(=O)N[C@@H](CCCNC(=N)N)C(=O)N[C@@H](CCC(N)=O)C(=O)N[C@@H](CCCNC(=N)N)C(=O)O)[C@@H](C)O [ERAP1-peptide]
phosphorylation of ERα (Tam-R MCF-7, 10 μM peptide): all phosphorylation of ERα was also decreased
phosphorylations of Akt and MAPK (Tam-R MCF-7, tamoxifen alone or tamoxifen and E2): phosphorylations of Akt and MAPK were remarkably decreased
